Like-named read-outs stand apart in the source and are kept apart here.
Columns and labels:
[1] = tested on: LPS-induced activation of the LAL enzyme (Limulus amoebocyte lysate); test: Binding of peptides to lipopolysaccharide (LAL assay); assay type: biochemical; settings: one EU of LPS, 37 °C, 30 minutes
Experimental: Figure 3 Ability of peptides to neutralize LPS and reduce inflammatory cytokines expression. (A) LPS binding activity of peptides. Peptides at different concentrations were incubated with one endotoxin unit (EU) of LPS at 37 °C for 30 minutes. […] The binding of peptides with LPS is expressed as percent change relative to the untreated samples. (B) Anti-inflammatory effect of peptides on LPS-stimulated macrophages. J774A.1 cells were stimulated with LPS (150 ng/mL final concentration) in the presence of different concentrations of peptides. Cells stimulated with LPS alone and untreated cells served as controls. Cells were incubated for six hours at 37 °C before the supernatant from each treatment group was collected. Detection of tumor necrosis factor-α (TNF-α) and interleukin-6 (IL-6) in supernatants was determined using ELISA. Cytokine levels are expressed as percent change relative to the LPS-stimulated control. Statistical analysis was calculated using one-way ANOVA, with post hoc Tukey’s multiple comparisons test. P < 0.05 was considered significant. One asterisk (*) indicates significant difference with the negative control.
To determine the peptides’ ability to bind to LPS, a Limulus amoebocyte lysate (LAL) kit (Genscript, USA Inc.) was utilized, as described in previous reports. The peptides were dissolved in pyrogen-free water and serially diluted in the same solvent. The peptides were then incubated with one endotoxin unit (EU) of LPS at 37 °C for 30 minutes in order to permit the peptides to bind LPS. The reaction mixture (50 μL) was added to 50 μL of LAL reagent, and further incubated for 10 minutes. Next, 100 μL of LAL chromogenic substrate was added. The mixture was incubated at 37 °C for six minutes. The optical density (at 545 nm) was determined using a microplate reader. Colistin was used as a positive control. The binding of peptides with LPS was expressed as the percent change relative to the untreated control.

[2] = tested on: colistin-resistant P. aeruginosa isolated from cystic fibrosis patients
From the text: (§1) The broth microdilution technique was utilized to assess the MIC of designed peptides according to the guidelines of the Clinical and Laboratory Standards Institute (CLSI)[37].

[3] = tested on: P. aeruginosa and A. baumannii isolates
From the text: as §1

A. baumannii = assay type: cell-based

Colistin [reference compound]
inhibition of LPS-induced activation of the LAL enzyme ([1]; 5 µM peptide): 51.2% | inhibition of LPS-induced activation of the LAL enzyme ([1]; 10 µM peptide): 83.0% | inhibition of LPS-induced activation of the LAL enzyme ([1]; 15 µM peptide): Complete inhibition | inhibition of LPS-induced activation of the LAL enzyme ([1]; 20 µM peptide): Complete inhibition | MIC ([2]; strain 1125): 32 µM | MIC ([2]; strain 1131): 64 µM | MIC ([2]; strain 1133): 32 µM | MIC ([2]; strain 1603): 64 µM | MIC50 ([3]; MIC that inhibited growth of 50% of all isolates (Table 2)): 0.25 µM | MIC90 ([3]; MIC that inhibited growth of 90% of all isolates (Table 2)): 0.5 µM | MIC (A. baumannii; strain ATCC 19606): 0.125 µM | MIC (A. baumannii; strain ATCC BAA-747): 0.25 µM | MIC (A. baumannii; strain ATCC BAA-1605): 0.25 µM | MIC (A. baumannii; strain NR-9667): 0.0625 µM | MIC (A. baumannii; strain NR-13374): 0.125 µM | MIC (A. baumannii; strain NR-13375): 0.125 µM | MIC (A. baumannii; strain NR-13382): 0.5 µM | MIC (A. baumannii; strain NR-17777): 0.5 µM | MIC (A. baumannii; strain NR-17778): 0.0625 µM | MIC (A. baumannii; strain NR-17780): 0.25 µM | MIC (A. baumannii; strain NR-17783): 0.0625 µM | MIC (A. baumannii; strain NR-17784): 0.0625 µM | MIC (A. baumannii; strain NR-17785): 0.25 µM | MIC (A. baumannii; strain NR-17786): 0.0625 µM | MIC (A. baumannii; strain NR-19298): 0.25 µM | MIC (A. baumannii; strain NR-19299): 0.25 µM

From publication PMC5537347, “A short D-enantiomeric antimicrobial peptide with potent immunomodulatory and antibiofilm activity against multidrug-resistant Pseudomonas aeruginosa and Acinetobacter baumannii” (Scientific Reports, 2017)
